Results reported in patent US20230278972A1, “SUBSTITUTED HALOALKYL SULFONANILIDE HERBICIDES” (FMC Corporation, priority 2020, published 2023).

Key:
Type in all cases: in vivo
[1] = system: Foxtail, Giant (giant foxtail, Setaria faberi); experiment: Test A1 postemergence, Foxtail, Giant; details: for Plant response rating, Foxtail, Giant: Postemergence
Summary of the method: (§1)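 Seeds were first planted into a blend of loam soil and sand and given a preemergence directed soil spray. In parallel, pots of the same soil were sown for postemergence application once plants reached 2 to 10 cm and the one- to two-leaf stage. Both used surfactant-containing non-phytotoxic solvent formulations.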

[2] = system: barnyardgrass (Echinochloa crus-galli); experiment: Test B1 flooded paddy test, barnyardgrass; details: 250 g ai/ha, Flood, applied to paddy water, 2-leaf stage, visually evaluated after 10 to 14 days
Source text: A dash (-) response means no test result.

[3] = system: ragweed (common ragweed, Ambrosia artemisiifolia); experiment: Test A1 preemergence, ragweed
Summary of the method: (§2)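 Test compounds were formulated in a non-phytotoxic solvent mixture containing a surfactant. For preemergence, seeds sown in a loam soil–sand blend received a directed soil spray. For postemergence, potted plants in the same soil, 2 to 10 cm tall at the one- to two-leaf stage, were sprayed.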

[4] = system: Pigweed, Palmer (palmer amaranth, palmer pigweed, Amaranthus palmeri); experiment: Test A1 postemergence, Pigweed, Palmer; details: for Plant response rating, Pigweed, Palmer: Postemergence
Summary of the method: (§3)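 Plants grown in pots of loam/sand mix; preemergence = soil-directed spray on seeded pots, postemergence = spray at 1–2 leaves, height 2–10 cm; test chemicals formulated in non-phytotoxic solvent with surfactant.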

[5] = system: blackgrass (Alopecurus myosuroides); experiment: Test A1 postemergence, blackgrass; details: Postemergence, 0 to 100 scale (0 no effect, 100 complete control)
Summary of the method: as §1

[6] = system: Oat, Wild (wild oat, Avena fatua); experiment: Test A1 postemergence, Oat, Wild; details: for Plant response rating, Oat, Wild: Postemergence
Summary of the method: as §3

[7] = system: wheat (Triticum aestivum); experiment: Test A1 preemergence, wheat
Summary of the method: as §2

[8] = system: goosegrass (Eleusine indica); experiment: Test A1 postemergence, goosegrass; details: for Plant response rating, Goosegrass: Postemergence
Summary of the method: as §1

[9] = 31 g ai/ha, postemergence, 0 to 100 scale (0 no effect, 100 complete control)
[10] = 31 g ai/ha, 0 to 100 scale (0 no effect, 100 complete control)
[11] = 125 g ai/ha, 0 to 100 scale, 0 no effect, 100 complete control
[12] = 31 g ai/ha, 0 to 100 scale (0 no effect, 100 complete control), 10 days

Compound | Foxtail, Giant plant response rating [1, 9] | Plant response rating, Foxtail, Giant ([1]; 125 g ai/ha, 0 to 100 scale) | Plant response rating, Barnyardgrass (0 to 100 scale, 0 is no effect, 100 is complete control) [2] | Plant response rating, Ragweed [3, 10] | Plant response rating, Ragweed [3, 11] | Pigweed, Palmer plant response rating [4, 9] | Plant response rating, Pigweed, Palmer ([4]; 125 g ai/ha, 0 to 100 scale) | Plant response rating, Blackgrass ([5]; 31 g ai/ha, 10 days) | Plant response rating, Blackgrass ([5]; 125 g ai/ha) | Oat, Wild plant response rating [6, 9] | Plant response rating, Oat, Wild ([6]; 125 g ai/ha, 0 to 100 scale) | Plant response rating, Wheat [7, 10] | Plant response rating, Wheat [7, 11] | Goosegrass plant response rating [8, 9] | Plant response rating, Goosegrass ([8]; 125 g ai/ha, 0 to 100 scale) | Plant response rating, Foxtail, Giant [1, 12] | Plant response rating, Pigweed, Palmer [4, 12] | Plant response rating, Oat, Wild [6, 12] | Plant response rating, Goosegrass [8, 12]
Cc1c(C(=O)N2C[C@@H](C)O[C@H](C)C2)cc(N(COC(=O)C(C)(C)C)S(=O)(=O)C(F)(F)F)c(C)c1C (relative stereo) [Compound 373] | 0 | 60 | 95 | 50 | 50 | 0 | 10 | 0 | 10 | 0 | 10 | 0 | 20 | 0 | 70 | – | – | – | –
Cc1cc(C)c(N(COC(=O)C(C)(C)C)S(=O)(=O)C(F)(F)F)cc1C1=NOC2CCCCCC12 (single isomer, unassigned) [Compound 294] | – | 20 | 95 | 0 | 30 | – | 30 | 0 | 0 | – | 20 | 0 | 0 | – | 30 | 0 | 10 | 10 | 0
Cc1cc(C)c(-n2nccc(C)c2=O)cc1NS(=O)(=O)C(F)(F)F [Compound 281] | – | 30 | 0 | 0 | 0 | – | 40 | 0 | 0 | – | 0 | 0 | 20 | – | 40 | 0 | 0 | 0 | 0
Cc1c(NS(=O)(=O)C(F)(F)F)cc(C(=O)N(C)C)c(C)c1Cl [Compound 287] | – | 0 | 0 | 0 | 80 | – | 40 | 0 | 0 | – | 0 | 0 | 30 | – | 60 | 0 | 0 | 0 | 0
Cc1c(NS(=O)(=O)C(F)(F)F)cc(C(=O)N(C)C)c(C)c1C [Compound 288] | – | 70 | 0 | 0 | 40 | – | 30 | 0 | 0 | – | 0 | 0 | 0 | – | 70 | 0 | 0 | 0 | 0
Cc1c(NS(=O)(=O)C(F)(F)F)cc(C(=O)N2CCOCC2)c(C)c1Cl [Compound 290] | – | 70 | 0 | 20 | 60 | – | 20 | 0 | 0 | – | 10 | 0 | 40 | – | 70 | 0 | 0 | 0 | 30
Cc1cc(C)c(N(C(=O)OC(C)C)S(=O)(=O)C(F)(F)F)cc1C1=NOC2CCCC12 (centres unmarked) [Compound 295] | – | 10 | 95 | 0 | 0 | – | 30 | 0 | 0 | – | 0 | 0 | 30 | – | 70 | 0 | 0 | 0 | 20
Cc1cc(C)c(N(C(=O)OCC(C)C)S(=O)(=O)C(F)(F)F)cc1C1=NOC2CCCC12 (centres unmarked) [Compound 299] | – | 30 | 95 | 0 | 30 | – | 10 | 0 | 0 | – | 0 | 0 | 70 | – | 40 | 0 | 10 | 0 | 30
Cc1cc(C)c(N(COC(=O)C(C)(C)C)S(=O)(=O)C(F)(F)F)cc1C1=NOC2COCC12 (centres unmarked) [Compound 301] | – | 60 | 95 | 0 | 80 | – | 30 | 0 | 0 | – | 10 | 0 | 40 | – | 60 | 0 | 0 | 0 | 0
Cc1cc(F)c(NS(=O)(=O)C(F)(F)F)cc1C1=NOC2(CCCC2)C1 [Compound 303] | – | 80 | 0 | 0 | 0 | – | 20 | – | – | – | 20 | 30 | 90 | – | 70 | 30 | 0 | 0 | 0
CCc1cc(C)c(NS(=O)(=O)C(F)(F)F)cc1C1=NOC2CCCC12 (centres unmarked) [Compound 305] | – | 60 | 90 | 0 | 20 | – | 40 | 0 | 0 | – | 20 | 20 | 40 | – | 80 | 20 | 0 | 20 | 10
Cc1cc(C(F)(F)F)c(C2=NOC3CCCC23)cc1NS(=O)(=O)C(F)(F)F (centres unmarked) [Compound 306] | – | 30 | 0 | 0 | 10 | – | 40 | 0 | 0 | – | 20 | 0 | 0 | – | 80 | 0 | 0 | 0 | 0
Cc1cc(C)c(N(COC(=O)C(C)C)S(=O)(=O)C(F)(F)F)cc1C1=NOC2CCCC12 (centres unmarked) [Compound 308] | – | 40 | 95 | 0 | 50 | – | 0 | 0 | 0 | – | 0 | 20 | 80 | – | 80 | 0 | 0 | 0 | 50
Cc1cc(Br)c(NS(=O)(=O)C(F)(F)F)cc1C1=NOC2(CCCC2)C1 [Compound 309] | – | 60 | 0 | 0 | 20 | – | 20 | – | – | – | 20 | 0 | 60 | – | 30 | 20 | 0 | 0 | 0
Cc1cc(F)c(C2=NOC3CCCC23)cc1NS(=O)(=O)C(F)(F)F (centres unmarked) [Compound 310] | – | 0 | 0 | 0 | 20 | – | 0 | 0 | 0 | – | 10 | 0 | 0 | – | 0 | 0 | 0 | 0 | 0
